pIC50: −log10 of the molar value.

Here are results for twelve compounds from patent US12378224B2 (Dong-A Socio Holdings Co., Ltd., priority 2016, dated 2025).

For this assay, the target named is human c-MER catalytic domain (Homo sapiens (Human), UniProt Q12866). Put plainly: TR-FRET Kinase Activity Biochemical Assay (LanthaScreen). The settings on record: 10 uM ATP, 1 hour, kinase not given. A digest of the protocol:
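Activity was quantified as the ratio of 495 nm to 520 nm emission (excitation 340 nm) in a LanthaScreen TR-FRET format. The enzyme was the human c-MER catalytic domain, and the substrate was fluorescein-poly-GT. Detection used 2 nM Tb anti-phosphotyrosine antibody for 30 min after termination with 10 mM EDTA.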

Sequence of human c-MER catalytic domain (Q12866 587-858): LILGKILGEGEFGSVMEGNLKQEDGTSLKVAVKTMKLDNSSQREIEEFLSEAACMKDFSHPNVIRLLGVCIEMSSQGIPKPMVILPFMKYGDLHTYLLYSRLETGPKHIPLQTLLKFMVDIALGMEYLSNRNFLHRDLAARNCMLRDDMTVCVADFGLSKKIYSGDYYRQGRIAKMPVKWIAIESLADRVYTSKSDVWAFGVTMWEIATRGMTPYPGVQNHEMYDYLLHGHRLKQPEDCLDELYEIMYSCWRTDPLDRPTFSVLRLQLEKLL

With `Cn1cc(-c2cnc(N)c(C(=O)N[C@@H]3CCN(C(=O)C4Cc5ccccc5C4)C3)c2)cn1` [Example 496, (R)-2-amino-N-(1-(2,3-dihydro-1H-indene-2-carbonyl)pyrrolidin-3-yl)-5-(1-methyl-1H-pyrazol-4-yl)nicotinamide], the pIC50 (usually the negative decadic logarithm of the IC50, by convention in mol/L) is below 6.00.
As for `Cn1cc(-c2cnc(N)c(C(=O)N[C@@H]3CCN(C(=O)c4nc5cc(Cl)ccc5o4)C3)c2)cn1` [Example 498, (R)-2-amino-N-(1-(5-chlorobenzo[d]oxazole-2-carbonyl)pyrrolidin-3-yl)-5-(1-methyl-1H-pyrazol-4-yl)nicotinamide], the figure is below 6.00; as for `Cn1cc(-c2cnc(N)c(C(=O)N[C@@H]3CCN(C(=O)c4nn(C)c5ccccc45)C3)c2)cn1` [Example 499, (R)-2-amino-N-(1-(1-methyl-1H-indazole-3-carbonyl)pyrrolidin-3-yl)-5-(1-methyl-1H-pyrazol-4-yl)nicotinamide], 6.00 to 7.00; as for `Cc1onc(-c2ccccc2)c1C(=O)N1CC[C@@H](NC(=O)c2cc(-c3cnn(C)c3)cnc2N)C1` [Example 500, (R)-2-amino-5-(1-methyl-1H-pyrazol-4-yl)-N-(1-(5-methyl-3-phenylisoxazole-4-carbonyl)pyrrolidin-3-yl)nicotinamide], below 6.00.
As for `Cn1cc(-c2cnc(N)c(C(=O)N[C@@H]3CCN(C(=O)c4cccc5c4oc4ccccc45)C3)c2)cn1` [Example 501, (R)-2-amino-N-(1-(dibenzo[b,d]furan-4-carbonyl)pyrrolidin-3-yl)-5-(1-methyl-1H-pyrazol-4-yl)nicotinamide], the figure is below 6.00; as for `Cn1cc(-c2cnc(N)c(C(=O)N[C@@H]3CCN(C(=O)c4ccc5[nH]ccc5c4)C3)c2)cn1` [Example 502, (R)—N-(1-(1H-indole-5-carbonyl)pyrrolidin-3-yl)-2-amino-5-(1-methyl-1H-pyrazol-4-yl)nicotinamide], below 6.00; as for `Cn1cc(-c2cnc(N)c(C(=O)N[C@@H]3CCN(C(=O)c4ccc5[nH]c6c(c5c4)CCC6)C3)c2)cn1` [Example 503, (R)-2-amino-5-(1-methyl-1H-pyrazol-4-yl)-N-(1-(1,2,3,4-tetrahydrocyclopenta[b]indole-7-carbonyl)pyrrolidin-3-yl)nicotinamide], below 6.00.
With `Cn1cc(-c2cnc(N)c(C(=O)N[C@@H]3CCN(C(=O)c4ccc(-c5cnn(C6CCN(C(=O)OC(C)(C)C)CC6)c5)cc4)C3)c2)cn1` [Example 511, tert-butyl (R)-4-(4-(4-(3-(2-amino-5-(1-methyl-1H-pyrazol-4-yl)nicotinamido)pyrrolidine-1-carbonyl)phenyl)-1H-pyrazol-1-yl)piperidine-1-carboxylate] the figure was 6.00 to 7.00; with `CC(=O)n1ccc2cc(C(=O)N3CC[C@@H](NC(=O)c4cc(-c5cnn(C)c5)cnc4N)C3)ccc21` [Example 513, (R)—N-(1-(1-acetyl-1H-indole-5-carbonyl)pyrrolidin-3-yl)-2-amino-5-(1-methyl-1H-pyrazol-4-yl)nicotinamide], 6.00 to 7.00; with `CC(=O)n1ccc2c(C(=O)N3CC[C@@H](NC(=O)c4cc(-c5cnn(C)c5)cnc4N)C3)cccc21` [Example 514, (R)—N-(1-(1-acetyl-1H-indole-4-carbonyl)pyrrolidin-3-yl)-2-amino-5-(1-methyl-1H-pyrazol-4-yl)nicotinamide], below 6.00.
Regarding `Cn1cc(-c2cnc(N)c(C(=O)N[C@@H]3CCN(C(=O)c4cn(-c5ccccc5)nc4C(F)(F)F)C3)c2)cn1` [Example 516, (R)-2-amino-5-(1-methyl-1H-pyrazol-4-yl)-N-(1-(1-phenyl-3-(trifluoromethyl)-1H-pyrazole-4-carbonyl)pyrrolidin-3-yl)nicotinamide], the pIC50 was below 6.00.
Regarding `Cc1n[nH]c(C)c1-c1ccc(C(=O)N2CC[C@@H](NC(=O)c3cc(-c4cnn(C)c4)cnc3N)C2)cc1` [Example 518, (R)-2-amino-N-(1-(4-(3,5-dimethyl-1H-pyrazol-4-yl)benzoyl)pyrrolidin-3-yl)-5-(1-methyl-1H-pyrazol-4-yl)nicotinamide], the pIC50 is 6.00 to 7.00.
